# From patent US7349080B2, “Label-independent detection of unpurified analytes” (Corning Incorporated, priority 2004, dated 2008)
# Experiment: Label-independent detection (LID) of binding to immobilized biotin on a grating-coupled waveguide microplate
# Excerpt: A label-independent detection (LID) system developed by Corning Inc. was used to evaluate interactions between unlabeled streptavidin and immobilized biotin. This LID system is comprised of a multi-well optical reader and a disposable microplate (e.g., a 96- or 384-well microplate). Each well of the microplate contains a grating-coupled waveguide for evanescent field sensing. The sensing surface has a surface chemistry layer allowing for attachment of molecules that contain primary amine groups (e.g., biotin-amine). As streptavidin or other analytes of interest bind to the sensing surface, the refractive index at the surface is changed. An optical mode propagates and senses the refractive index changes close to the sensing surface. Only light that is “resonant” is strongly reflected, and the exact wavelength of the resonance is a sensitive function of the refractive index at the surface of the sensor. In a typical operation, a baseline read of the microplate is first established. Addition of a binding partner results in a change in refractive index at the sensing surface, which is indicated as picometer (pm) shift from baseline. Each microplate is read on the optical reader before, during, and after the addition of the binding partner. Resonant wavelength shift (“Response (pm)”) is plotted as a function of time. Cell lysate was prepared by diluting a 2 mg/ml stock to 100 μg/ml final concentration. A Corning 96-well clear polystyrene non-treated flat bottom plate (Corning catalog # 3370) was used for source plate preparation. To facilitate efficient pickup of the sample solutions by a multi-channel robotic pipettor in the LID instrument, each well of the source plate contained extra solution. A solution of 1× phosphate buffered saline (PBS; 1 mM KH2PO4, 10 mM Na2HPO4, 137 mM NaCl, and 2.7 mM KCl) was used as a first addition step for baseline measure. […] Interactions between purified streptavidin and immobilized biotin were first evaluated (FIG. 2). […] PBS was added to establish a baseline read (before point A). […]
"effect of post wash on binding of streptavidin to biotin (PBS wash after point C, corrected response curve, FIG. 3)","bulk index shift (Response (pm)) due to binding to the immobilized biotin (purified streptavidin 200 nM in 1x PBS, between points A and B, FIG. 2)",Compound,"binding to the target area (ethanolamine in borate buffer, between points B and C, corrected response curve, FIG. 3)"
–,–,"NCCO [Ethanolamine, ethanolamine]",did not appear to bind to the target area
did not disrupt the binding,increase in the bulk index,streptavidin,–
